Measured values reported in PubChem BioAssay AID248 (DTP/NCI, 2004).
Several values for one entry are separate records, joined by “and”; a condition that tells them apart may be missing. Equal entries are not always repeated. Inconclusive results and toxic doses are left out. Cut-off read from the data, not from the text of the source: active = T/C of 150% or more; inactive = T/C below 125%.

System: L1210 leukemia ip in BDF1 mice, survival T/C
Assay: NCI In Vivo Anticancer Drug Screen. Data for tumor model L1210 Leukemia (intraperitoneal) in B6D2F1 (BDF1) mice
Settings: endpoint: mean survival time, higher = longer survival
Outline: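 Read-out is survival time, reported as the treated-group measurement over the vehicle-control measurement.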

[1] = dose: 25.0 mg/kg/injection, schedule: Q01DX009 (ip), vehicle: Klucel (hydroxypropylcellulose) (HPC)
[2] = dose: 50.0 mg/kg/injection, schedule: Q01DX009 (ip), vehicle: Klucel (hydroxypropylcellulose) (HPC)
[3] = dose: 100.0 mg/kg/injection, schedule: Q01DX009 (ip), vehicle: Klucel (hydroxypropylcellulose) (HPC)
[4] = dose: 100.0 mg/kg/injection, schedule: Q04DX003 (ip), vehicle: Klucel (hydroxypropylcellulose) (HPC)
[5] = dose: 200.0 mg/kg/injection, schedule: Q01DX009 (ip), vehicle: Klucel (hydroxypropylcellulose) (HPC)
[6] = dose: 200.0 mg/kg/injection, schedule: Q04DX003 (ip), vehicle: Klucel (hydroxypropylcellulose) (HPC)
[7] = dose: 50.0 mg/kg/injection, schedule: Q04DX003 (ip), vehicle: saline with Tween-80
[8] = dose: 100.0 mg/kg/injection, schedule: Q01DX009 (ip), vehicle: saline with Tween-80
[9] = dose: 100.0 mg/kg/injection, schedule: Q04DX003 (ip), vehicle: saline with Tween-80
[10] = dose: 200.0 mg/kg/injection, schedule: Q01DX009 (ip), vehicle: saline with Tween-80
[11] = dose: 200.0 mg/kg/injection, schedule: Q04DX003 (ip), vehicle: saline with Tween-80
[12] = dose: 400.0 mg/kg/injection, schedule: Q01DX009 (ip), vehicle: saline with Tween-80
[13] = dose: 400.0 mg/kg/injection, schedule: Q04DX003 (ip), vehicle: saline with Tween-80
[14] = dose: 25.0 mg/kg/injection, schedule: Q01DX009 (ip), vehicle: saline with Tween-80
[15] = dose: 25.0 mg/kg/injection, schedule: Q04DX003 (ip), vehicle: saline with Tween-80
[16] = dose: 50.0 mg/kg/injection, schedule: Q01DX009 (ip), vehicle: saline with Tween-80
[17] = dose: 400.0 mg/kg/injection, schedule: Q04DX003 (ip), vehicle: Klucel (hydroxypropylcellulose) (HPC)

Measured: T/C

CN1C(=O)CCS(=O)(=O)C1c1ccc(Cl)c(Cl)c1 (stereo unspecified)
inactive: dose: 12.5 mg/kg/injection, schedule: Q01DX009 (ip), vehicle: Klucel (hydroxypropylcellulose) (HPC) 101 % of control | [1] 114 % of control | dose: 25.0 mg/kg/injection, schedule: Q04DX003 (ip), vehicle: Klucel (hydroxypropylcellulose) (HPC) 105 % of control | [2] 103 % of control | dose: 50.0 mg/kg/injection, schedule: Q04DX003 (ip), vehicle: Klucel (hydroxypropylcellulose) (HPC) 100 % of control | [3] 110 % of control | [4] 105 % of control | [5] 104 % of control | [6] 108 % of control

CSc1ccc(NC(=O)Nc2cccc(Cl)c2C)cc1
inactive: [7] 94 % of control | [8] 96 % of control and 101 % of control | dose: 100.0 mg/kg/injection, schedule: Q04DX002 (ip), vehicle: saline with Tween-80 93 % of control and 104 % of control | [9] 92 % of control | [10] 100 % of control and 104 % of control | dose: 200.0 mg/kg/injection, schedule: Q04DX002 (ip), vehicle: saline with Tween-80 93 % of control and 97 % of control | [11] 87 % of control | [12] 104 % of control and 106 % of control | dose: 400.0 mg/kg/injection, schedule: Q04DX002 (ip), vehicle: saline with Tween-80 107 % of control and 88 % of control | [13] 88 % of control

CCCCCCCC1N(C)CCCN1C
inactive: [14] 88 % of control | [15] 93 % of control | [16] 95 % of control | [7] 96 % of control | [9] 95 % of control and 92 % of control

CC1C(c2ccccc2)N1P(=O)(c1ccccc1)c1ccccc1 (stereo unspecified)
inactive: dose: 100.0 mg/kg/injection, schedule: Q04DX003 (sc), vehicle: carboxymethylcellulose (CMC) 102 % of control | dose: 200.0 mg/kg/injection, schedule: Q04DX003 (sc), vehicle: carboxymethylcellulose (CMC) 104 % of control | dose: 400.0 mg/kg/injection, schedule: Q04DX003 (sc), vehicle: carboxymethylcellulose (CMC) 98 % of control

CC(C)NNC(=O)C(C)N (stereo unspecified)
inactive: dose: 12.5 mg/kg/injection, schedule: Q01DX009 (ip), vehicle: saline 87 % of control | dose: 25.0 mg/kg/injection, schedule: Q01DX009 (ip), vehicle: saline 90 % of control | dose: 25.0 mg/kg/injection, schedule: Q04DX003 (ip), vehicle: saline 89 % of control | dose: 50.0 mg/kg/injection, schedule: Q01DX009 (ip), vehicle: saline 92 % of control | dose: 50.0 mg/kg/injection, schedule: Q04DX003 (ip), vehicle: saline 103 % of control | dose: 100.0 mg/kg/injection, schedule: Q01DX009 (ip), vehicle: saline 92 % of control | dose: 100.0 mg/kg/injection, schedule: Q04DX003 (ip), vehicle: saline 89 % of control | dose: 200.0 mg/kg/injection, schedule: Q01DX009 (ip), vehicle: saline 93 % of control | dose: 200.0 mg/kg/injection, schedule: Q04DX003 (ip), vehicle: saline 86 % of control

CC12CCCC=C1CC(C(C)(C)O)CC2 (stereo unspecified)
inactive: [16] 96 % of control | [8] 100 % of control | [10] 100 % of control

COc1ccc(C(C#N)N2CCCCC2)cc1 (stereo unspecified)
inactive: [1] 102 % of control | [2] 101 % of control | [4] 95 % of control | [6] 111 % of control | [17] 101 % of control

CCOC(=O)C(O)C1(Cl)CCC(C(C)(C)C)CC1 (stereo unspecified)
inactive: dose: 100.0 mg/kg/injection, schedule: Q04DX002 (ip), vehicle: saline 103 % of control | dose: 200.0 mg/kg/injection, schedule: Q04DX002 (ip), vehicle: saline 106 % of control | dose: 400.0 mg/kg/injection, schedule: Q04DX002 (ip), vehicle: saline 106 % of control

CN(C)C(=S)SN(C)C(=O)Nc1ccccc1
inactive: [4] 105 % of control | [6] 109 % of control | [17] 107 % of control

CC(C)CN1CCCC(=O)C(O)CCC1 (stereo unspecified)
inactive: dose: 100.0 mg/kg/injection, schedule: Q01DX001 (ip), vehicle: acetone 101 % of control

C(=C\CN(Cc1ccccc1)Cc1ccccc1)/CN(Cc1ccccc1)Cc1ccccc1
inactive: [4] 90 % of control | [6] 87 % of control | [17] 87 % of control

NNc1nc(Nc2ccccc2)nc(Nc2ccccc2)n1
inactive: dose: 100.0 mg/kg/injection, schedule: Q01DX001 (ip), vehicle: saline 89 % of control | dose: 200.0 mg/kg/injection, schedule: Q01DX001 (ip), vehicle: saline 95 % of control | dose: 400.0 mg/kg/injection, schedule: Q01DX001 (ip), vehicle: saline 96 % of control

CCC1(O)CC(OC2CC(N(C)C)C(OC3CC(O)C(OC4CC(O)C(O)C(C)O4)C(C)O3)C(C)O2)c2c(cc3c(c2O)C(=O)c2c(O)ccc(O)c2C3=O)C1C(=O)OC (stereo unspecified)
inactive: dose: 1.6 mg/kg/injection, schedule: Q01DX001 (ip), vehicle: saline 98 % of control | dose: 3.2 mg/kg/injection, schedule: Q01DX001 (ip), vehicle: saline 117 % of control | dose: 6.4 mg/kg/injection, schedule: Q01DX001 (ip), vehicle: saline 108 % of control | dose: 12.8 mg/kg/injection, schedule: Q01DX001 (ip), vehicle: saline 124 % of control

C[C@]12CC[C@H]3[C@@H](CC[C@@H]4C[C@@H](O)CC[C@@]43C=O)[C@]13O[C@@H]3CC2c1ccc(=O)oc1 (stereo partly specified)
inactive: dose: 0.25 mg/kg/injection, schedule: Q01DX009 (ip), vehicle: Klucel (hydroxypropylcellulose) (HPC) 100 % of control | dose: 0.5 mg/kg/injection, schedule: Q01DX009 (ip), vehicle: Klucel (hydroxypropylcellulose) (HPC) 100 % of control | dose: 1.0 mg/kg/injection, schedule: Q01DX009 (ip), vehicle: Klucel (hydroxypropylcellulose) (HPC) 100 % of control

O=C(Nc1ccc(NC(=O)c2ccccc2)c2c1C(=O)c1ccccc1C2=O)c1ccccc1
inactive: [3] 96 % of control | dose: 100.0 mg/kg/injection, schedule: Q04DX002 (ip), vehicle: Klucel (hydroxypropylcellulose) (HPC) 100 % of control | [5] 96 % of control | dose: 200.0 mg/kg/injection, schedule: Q04DX002 (ip), vehicle: Klucel (hydroxypropylcellulose) (HPC) 93 % of control | dose: 400.0 mg/kg/injection, schedule: Q01DX009 (ip), vehicle: Klucel (hydroxypropylcellulose) (HPC) 107 % of control | dose: 400.0 mg/kg/injection, schedule: Q04DX002 (ip), vehicle: Klucel (hydroxypropylcellulose) (HPC) 103 % of control

CN(C(=O)Sc1ccc([N+](=O)[O-])cc1)c1ccccc1
inactive: [9] 91 % of control | [11] 89 % of control | [13] 91 % of control

CCCCCCCc1nc(N)c(C(N)=O)[nH]1
inactive: [15] 96 % of control | [7] 102 % of control | dose: 100.0 mg/kg/injection, schedule: Q01DX001 (ip), vehicle: saline with Tween-80 98 % of control | [9] 101 % of control

Cc1ccc(S(=O)(=O)OCCc2ccccc2)cc1
inactive: [8] 100 % of control | [9] 102 % of control | [10] 100 % of control | [11] 102 % of control | [12] 96 % of control | [13] 100 % of control

CC(C)(C)CC(C)(C)N=C=S
inactive: [14] 100 % of control | [16] 94 % of control | [8] 96 % of control and 97 % of control
